{"source": "patent US4647571A", "about": "“Cysteine delivery composition” (Cornell Research Foundation, priority 1982, dated 1987)", "key": {"5-oxo-L-prolinase [1]": {"target": "T1, 5-oxo-L-prolinase (Rattus norvegicus, UniProt P97608)", "T1 construct": "5-Oxo-L-prolinase was isolated from rat kidney and freed of 5-oxoproline by gel filtration; from tissue; host or cells: rat kidney", "T1 sequence (P97608 1-1288)": "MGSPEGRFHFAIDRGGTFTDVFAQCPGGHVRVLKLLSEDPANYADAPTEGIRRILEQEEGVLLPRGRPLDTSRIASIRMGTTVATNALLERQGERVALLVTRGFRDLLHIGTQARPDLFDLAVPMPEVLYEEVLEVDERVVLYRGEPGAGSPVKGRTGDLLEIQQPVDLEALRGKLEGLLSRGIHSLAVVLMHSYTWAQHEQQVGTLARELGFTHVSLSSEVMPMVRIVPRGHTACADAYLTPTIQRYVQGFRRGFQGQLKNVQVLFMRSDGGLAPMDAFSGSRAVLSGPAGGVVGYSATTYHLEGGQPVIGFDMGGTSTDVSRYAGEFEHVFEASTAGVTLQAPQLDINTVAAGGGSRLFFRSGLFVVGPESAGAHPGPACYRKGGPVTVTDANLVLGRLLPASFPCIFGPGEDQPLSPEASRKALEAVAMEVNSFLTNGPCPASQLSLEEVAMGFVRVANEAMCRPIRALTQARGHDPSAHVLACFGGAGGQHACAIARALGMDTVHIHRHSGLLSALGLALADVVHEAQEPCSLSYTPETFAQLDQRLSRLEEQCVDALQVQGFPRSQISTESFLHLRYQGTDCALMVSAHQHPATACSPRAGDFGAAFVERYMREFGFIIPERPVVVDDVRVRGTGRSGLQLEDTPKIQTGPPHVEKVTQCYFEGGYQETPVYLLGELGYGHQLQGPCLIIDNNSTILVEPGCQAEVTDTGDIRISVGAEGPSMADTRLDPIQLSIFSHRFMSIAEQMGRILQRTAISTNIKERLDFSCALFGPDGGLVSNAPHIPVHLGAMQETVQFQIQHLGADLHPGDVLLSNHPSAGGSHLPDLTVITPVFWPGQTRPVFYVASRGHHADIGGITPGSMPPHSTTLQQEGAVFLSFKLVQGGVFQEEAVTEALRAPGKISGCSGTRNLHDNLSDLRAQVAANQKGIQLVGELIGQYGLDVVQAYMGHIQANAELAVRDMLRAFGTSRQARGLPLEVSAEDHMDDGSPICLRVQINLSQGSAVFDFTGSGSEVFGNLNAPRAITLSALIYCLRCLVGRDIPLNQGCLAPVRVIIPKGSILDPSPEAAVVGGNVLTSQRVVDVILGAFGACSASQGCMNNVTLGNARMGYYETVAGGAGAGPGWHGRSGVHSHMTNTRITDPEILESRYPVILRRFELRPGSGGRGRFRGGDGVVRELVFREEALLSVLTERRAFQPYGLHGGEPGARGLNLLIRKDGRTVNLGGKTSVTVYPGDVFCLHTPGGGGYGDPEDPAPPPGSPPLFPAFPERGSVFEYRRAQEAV", "experiment": "Action of 5-oxo-L-prolinase on substrates (products formed)", "type": "biochemical", "settings": "for Products Formed: ADP: 5 mM ATP, 30 min at 37° C., pyruvate kinase-lactate dehydrogenase coupled assay; for Reaction on incubation with 5-oxo-L-prolinase: in the presence of ATP", "experimental": "(§1) In the experiments the reaction mixtures were made up to contain (final volume 0.5 ml) 100 mM Na Hepes (Na salt of N-2-hydroxyethylpiperizine-N'-2ethanesulfonic acid) buffer (pH 8.0), 150 mM KCl, 8 mM MgCl2, 2 mM phosphoenolpyruvate, 5 mM ATP (adenosine triphosphate), pyruvate kinase, in excess, 20 micrograms of 5-oxoprolinase, and the substrate as indicated.\n(§2) The L-and D-isomers of 2-oxothiazolidine-4-carboxylate were synthesized by the method set out in Kaneko et al, Bull, Chem. Soc. (Japan) vol. 37, pp. 242-4 (1964) as modified by the method of Shah et al, Cancer Research vol. 39, pp. 3942-7 (1979). 5-Oxo-L-prolinase was isolated from rat kidney and freed of 5-oxoproline by gel filtration. Other chemicals and materials were obtained commercially.\n(§3) After incubation ofr 30 min. at 37° C., the reaction mixtures were treated with 0.1 volume of 1 M HCl, and placed at 0° C. for 5 min.; and an equivalent volume of 1 M 2-amino-2-hydroxylmethyl-1,3,-propanediol was added. Portions were analyzed for amino acids by use of a Durrum Model 500 amino acid analyzer. Cysteine was also determined in some experiments by reaction with 5,5'-dithiobis (2-initrobenzoate) (DTNB)."}, "5-oxo-L-prolinase [2]": {"target": "T1, 5-oxo-L-prolinase", "experiment": "Inhibition of utilization of 5-oxo-L-proline (glutamate formation) by the purified enzyme", "type": "biochemical", "settings": "1 mM 5-oxo-L-proline", "experimental": "as §1, §2, §3\nEnergy for the reaction is supplied by the cleavage of ATP. […] The ratio of ADP to cysteine produced increased with time due undoubtedly to the loss of cysteine due to oxidation."}, "hepatic glutathione": {"system": "hepatic glutathione", "experiment": "Hepatic glutathione level after injection", "type": "in vivo, mice", "settings": "for hepatic glutathione level relative to controls: mice fasted overnight, 6.5 mmol/kilo intraperitoneally (D-isomer: equivalent doses)", "experimental": "The effect of injecting mice with L-2-oxothiazolidine-4-carboxylate on the level of hepatic gluathione was studies. […] The maximal effect was observed about 4 hours after injection. […] These findings are indicative of in vivo formation of cysteine after administration of L-2- oxothiazolidine-4-carboxylate.\nMice fasted overnight were injected intraperitoneally with NaCl (controls; dashed line) or with Na L-2-oxothiazolidine-4-carboxylate (6.5 mmol/kilo). At intervals, the mice were sacrificed and the excised liver was homogenized in 5 volumes of 1% picric acid. After centrifugation, the protein-free supernatant solutions were analyzed for glutathione by the method of Tietze, Anal. Biochem 27, 502-22(1969). Analyses were carried out in duplicate. In a number of instances, these values were checked by the 2-vinylpyridine procedure of Griffith, Anal. Biochem. 106; 207-12(1980); good agreement between the two methods was observed. In the figure, the points are mean values and the bars indicate the average deviation from the mean. The numbers in parentheses give the number of animals used. The value for the controls was 4.40±0.9 umol/g."}, "5-oxoproline metabolism [3]": {"system": "5-oxoproline metabolism", "settings": "previous studies of the inventors; cited from earlier work"}, "tissue cysteine": {"system": "tissue cysteine", "experiment": "Tissue/liver cysteine after administration", "type": "in vivo, mice"}, "liver glutathione": {"system": "liver glutathione", "experiment": "Hepatic glutathione in mice depleted of glutathione (acetoaminophenol)", "type": "in vivo", "experimental": "Administration of this compound therefore provides a way of getting cysteine into cells. One cannot give cysteine itself without complications since this amino acid is toxic extracellularly. However, when the L-oxothiazolidine compound is injected it enters the cell where it is split giving rise to cysteine within the cell. In a number of clinical situations, for example, after poisoning with excessive pain-killing drugs, e.g., those containing active ingredients known as N-acetyl-para-aminophenol, paracetamol, and acetaminophen, the liver glutathione levels decrease markedly. When cysteine is supplied to liver cells, additional glutathione can be synthesized and thus serve usefully in detoxifying the offending drug. Therefore, L-2-oxothiazolidine-4-carboxylate serves as an intracellular delivery system for cysteine and has potential as a therapeutic agent in situations in which there is depletion of liver glutathione. After acetoaminophenol is given to experimental animals such as mice, the liver glutathione declines rapidly because it is extensively utilized by reaction with the drug. […] For human treatment the L-isomer, preferably in the form of its neutral salt is administered directly into the gastro-intestinal tract or introduced intravenously."}, "5-oxoproline metabolism [4]": {"system": "5-oxoproline metabolism", "experiment": "In vivo inhibition of 5-oxoproline metabolism (respiratory 14CO2 after 5-oxo-L-[14C]proline)", "design": "species or system mice", "experimental": "(§4) The in vitro results showing that L-2-oxothiazolidine-4-carboxylate inhibits utilization of 5-oxoproline were confirmed by in vivo experiments. In the latter, animals were injected with 5-oxo-L-[^14 C] proline and the respiratory [^14 CO2 ] produced was collected and measured for several hours. […] However, L-2- oxothiazolidine-4-carboxylate is a much more efficient inhibitor.\n(§5) FIG. 3depicts the inhibition of 5-oxoproline metabolism by L-2- oxothiazolidine-4-carboxylate. Mice fasted overnight were injected intraperitoneally with NaCl (Curve 1; open symbols; controls) or with Na L-2-oxothiazolidine-4-carboxylate (2.5 mmol/kilo) (Curve 2; closed symbols). After 10 min., the mice were injected subcutaneously with 5-oxo-L-[^14 C] proline (A) or with L-[^14 C] glutamate (B) (0.02 mmol; 1.1×10^6 cpm). The mice were then placed in metabolic chambers and the respiratory CO2 was collected in ethanolamine/methanol, 1:4 (vol/vol). In A, each curve represents the results on 3 animals; the points are mean values and the bars represent standard deviations from the mean. In B, each curve represents the average of closely-agreeing results obtained from 2 animals."}, "metabolism of glutamate": {"system": "metabolism of glutamate", "experiment": "In vivo metabolism of L-[14C]glutamate (respiratory 14CO2)", "settings": "mice, 2.5 mmol/kilo intraperitoneally", "experimental": "as §4, §5"}}, "note": "“And” between values parts separate entries of the source, which are not always exact repeats. Equal entries are not always repeated."}
{"smiles": "O=C1CC[C@@H](C(=O)O)N1", "note": "[5-Oxo-L-proline, 5-oxo-L-proline]", "values": [{"measurement": "calculated Vmax value", "setting": "5-oxo-L-prolinase [1]; compared with the L-isomer", "result": "higher than that found for the L-isomer"}, {"measurement": "Products Formed: ADP", "setting": "5-oxo-L-prolinase [1]; substrate 2 mM", "result": 924, "unit": "nmol"}, {"measurement": "Products Formed: Amino Acid (as glutamate)", "setting": "5-oxo-L-prolinase [1]; substrate 2 mM, as glutamate", "result": 916, "unit": "nmol"}]}
{"smiles": "O=C1N[C@@H](C(=O)O)CS1", "note": "[D-2-oxothiazolidine-4-carboxylate]", "values": [{"measurement": "inhibition of glutamate formation (in words)", "setting": "5-oxo-L-prolinase [2]; same conditions", "result": "did not inhibit glutamate formation"}, {"measurement": "Reaction on incubation with 5-oxo-L-prolinase", "setting": "5-oxo-L-prolinase [1]", "result": "No reaction was observed"}, {"measurement": "Products Formed: ADP", "setting": "5-oxo-L-prolinase [1]; substrate 5 mM", "result": 96, "unit": "nmol"}, {"measurement": "Products Formed: Amino Acid", "setting": "5-oxo-L-prolinase [1]; substrate 5 mM, after reduction with KBH4 and reaction with iodoacetamide, footnote: less than 20 nmol", "result": 0, "unit": "nmol"}, {"measurement": "hepatic glutathione level relative to controls", "setting": "hepatic glutathione", "result": "No such stimulation was observed"}]}
{"smiles": "O=C1NC[C@@H](C(=O)O)N1", "note": "[L-2-imidazolidone-4-carboxylate]", "values": [{"measurement": "in vivo metabolism of 5-oxoproline", "setting": "5-oxoproline metabolism [3]", "result": "markedly inhibits"}, {"measurement": "Products Formed: ADP", "setting": "5-oxo-L-prolinase [1]; substrate 2 mM", "result": 930, "unit": "nmol"}, {"measurement": "Products Formed: Amino Acid", "setting": "5-oxo-L-prolinase [1]; substrate 2 mM, footnote: less than 5 nmol", "result": 0, "unit": "nmol"}]}
{"smiles": "O=C1N[C@H](C(=O)O)CS1", "note": "[L-2-oxothiazolidine-4-carboxylate]", "values": [{"measurement": "inhibition at 1000 µM", "setting": "5-oxo-L-prolinase [2]; inhibitor 1 mM", "result": 73, "unit": "%"}, {"measurement": "inhibition at 5000 µM", "setting": "5-oxo-L-prolinase [2]; inhibitor 5 mM", "result": 92, "unit": "%"}, {"measurement": "inhibition at 10000 µM", "setting": "5-oxo-L-prolinase [2]; inhibitor 10 mM", "result": 97, "unit": "%"}, {"measurement": "cysteine content of tissues", "setting": "tissue cysteine; administration to animals", "result": "increase in the cysteine content of tissues, especially the liver"}, {"measurement": "free cysteine in acid extracts of the livers", "setting": "tissue cysteine; amino acid analysis after dithiothreitol reduction and 2-vinylpyridine derivatization", "result": "No free cysteine was detected"}, {"measurement": "liver glutathione after acetoaminophenol", "setting": "liver glutathione; mice, given even two hours after the drug", "result": "an increase in liver glutathione occurs"}, {"measurement": "hepatic glutathione levels in mice depleted of hepatic glutathione", "setting": "liver glutathione; mouse, in vivo", "result": "restoration of normal hepatic glutathione levels"}, {"measurement": "apparent Km value", "setting": "5-oxo-L-prolinase [1]; compared with the natural substrate", "result": "somewhat lower than that found for the natural substrate"}, {"measurement": "Reaction on incubation with 5-oxo-L-prolinase", "setting": "5-oxo-L-prolinase [1]", "result": "rapid formation of ADP and cysteine"}, {"measurement": "Products Formed: ADP", "setting": "5-oxo-L-prolinase [1]; substrate 2 mM", "result": "478 nmol and 499 nmol"}, {"measurement": "Products Formed: Amino Acid", "setting": "5-oxo-L-prolinase [1]; substrate 2 mM, after conversion to cystine", "result": 463, "unit": "nmol"}, {"measurement": "Products Formed: Amino Acid", "setting": "5-oxo-L-prolinase [1]; substrate 2 mM, determined after reduction with KBH4 and reaction with iodoacetamide", "result": 466, "unit": "nmol"}, {"measurement": "formation of respiratory 14CO2 from 5-oxo-L-[14C]proline", "setting": "5-oxoproline metabolism [4]; mice, 2.5 mmol/kilo intraperitoneally 10 min before label", "result": "marked decrease"}, {"measurement": "in vivo inhibitory activity relative to L-2-imidazolidone-4-carboxylate", "setting": "5-oxoproline metabolism [4]; on a molar basis", "result": "at least four times more active"}, {"measurement": "injected 5-oxo-L-[14C]proline dose excreted in urine", "setting": "5-oxoproline metabolism [4]; treated animals, none found in the urine of the controls", "result": "about 16 % of the injected dose"}, {"measurement": "hepatic glutathione level relative to controls", "setting": "hepatic glutathione", "result": "about twice those of the controls"}, {"measurement": "time of maximal effect on hepatic glutathione after injection", "setting": "hepatic glutathione; mice, 6.5 mmol/kilo intraperitoneally", "result": "about 4 hours"}, {"measurement": "effect on the metabolism of glutamate", "setting": "metabolism of glutamate", "result": "does not have a significant effect"}]}
